Measured values: ChEMBL document CHEMBL1201862, “PubChem BioAssay data set” (2004)
Calls of active or inactive are those of the source.

Key:
[1] = target: Lysine-specific demethylase 4A (Homo sapiens, UniProt O75164); assay: inhibition of JMJD2A H3K9me3 demethylation – biochemical, DELFIA europium, cherry-picked samples, selectivity assay for GASC-1 inhibitor project, dose response (AID 488840)
Hexokinase HKDC1 = target: T1, Hexokinase HKDC1 (Homo sapiens, UniProt Q2TB90); assay: inhibition of HKDC1 glucose phosphorylation – biochemical, W721R variant, dose response (AID 504729); assay type: functional
T1 sequence (Q2TB90 whole entry): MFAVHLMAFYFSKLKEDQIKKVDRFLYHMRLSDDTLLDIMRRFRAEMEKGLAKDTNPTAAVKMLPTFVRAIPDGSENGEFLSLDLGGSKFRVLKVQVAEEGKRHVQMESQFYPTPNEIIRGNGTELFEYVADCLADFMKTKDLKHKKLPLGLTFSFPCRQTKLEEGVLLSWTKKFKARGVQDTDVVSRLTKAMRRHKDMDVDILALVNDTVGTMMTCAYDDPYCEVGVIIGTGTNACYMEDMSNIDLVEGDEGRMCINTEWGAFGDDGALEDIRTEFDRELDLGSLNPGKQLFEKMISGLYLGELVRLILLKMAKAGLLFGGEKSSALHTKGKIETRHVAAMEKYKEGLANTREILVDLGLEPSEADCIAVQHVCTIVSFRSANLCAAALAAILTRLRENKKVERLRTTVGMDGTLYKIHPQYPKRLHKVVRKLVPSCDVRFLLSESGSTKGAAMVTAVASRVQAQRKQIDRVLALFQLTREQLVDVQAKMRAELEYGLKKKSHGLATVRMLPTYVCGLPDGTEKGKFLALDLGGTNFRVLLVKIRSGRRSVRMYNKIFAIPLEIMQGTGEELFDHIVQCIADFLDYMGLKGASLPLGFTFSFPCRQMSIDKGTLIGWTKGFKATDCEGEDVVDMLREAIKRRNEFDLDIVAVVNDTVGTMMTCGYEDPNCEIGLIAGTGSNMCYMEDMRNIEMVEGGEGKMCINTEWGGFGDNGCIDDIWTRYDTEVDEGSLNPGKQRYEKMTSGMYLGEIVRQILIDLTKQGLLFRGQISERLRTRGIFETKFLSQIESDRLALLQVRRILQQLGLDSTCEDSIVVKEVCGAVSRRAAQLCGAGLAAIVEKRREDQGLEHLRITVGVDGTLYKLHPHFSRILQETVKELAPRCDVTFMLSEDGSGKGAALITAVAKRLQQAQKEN

[2] = target: T2, Alkaline phosphatase, tissue-nonspecific isozyme (Homo sapiens, UniProt P05186); assay: TNAP enzyme inhibition by screening hits, dose response, selectivity assay for mouse IAP inhibitor project, biochemical, human TNAP, uHTS hits (AID 488906); assay type: functional
T2 sequence (P05186 whole entry): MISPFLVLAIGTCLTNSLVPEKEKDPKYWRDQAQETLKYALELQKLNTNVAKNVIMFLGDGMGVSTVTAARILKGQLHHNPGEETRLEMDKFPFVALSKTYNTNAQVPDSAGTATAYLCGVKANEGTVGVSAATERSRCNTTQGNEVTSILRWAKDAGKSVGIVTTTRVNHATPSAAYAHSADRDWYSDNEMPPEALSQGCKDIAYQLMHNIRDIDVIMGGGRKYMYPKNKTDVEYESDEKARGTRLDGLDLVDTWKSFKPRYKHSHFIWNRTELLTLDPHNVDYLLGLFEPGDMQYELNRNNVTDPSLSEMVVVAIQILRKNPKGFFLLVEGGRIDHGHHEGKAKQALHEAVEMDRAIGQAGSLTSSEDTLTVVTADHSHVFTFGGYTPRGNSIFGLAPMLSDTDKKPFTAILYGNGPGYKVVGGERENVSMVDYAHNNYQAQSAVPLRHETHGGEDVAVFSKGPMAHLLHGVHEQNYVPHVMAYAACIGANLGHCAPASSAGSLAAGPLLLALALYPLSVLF

[3] = target: Intestinal-type alkaline phosphatase (Homo sapiens, UniProt P09923); assay: inhibition of human intestinal alkaline phosphatase – biochemical, dose response (AID 488876); assay type: functional
[4] = target: Intestinal-type alkaline phosphatase (Mus musculus, UniProt P24822); assay: PubChem AID 488785; assay type: functional
[5] = target: T3, G-protein coupled receptor 55 (Homo sapiens, UniProt Q9Y2T6); assay: selective activators of receptor GPR55 – imaging, U2OS cells, beta-arrestin-GFP redistribution, primary screen (AID 1961); assay type: functional
[6] = target: T4, Tyrosine-protein phosphatase non-receptor type 7 (Homo sapiens, UniProt P35236); assay: SAR analysis of chemical inhibitors of HePTP using a Fluorescent assay - Set 2. [Related pubchem assays (depositor defined):AID1059, AID1077, AID1661, AID2085, AID521]; assay type: functional
T4 sequence (P35236 whole entry): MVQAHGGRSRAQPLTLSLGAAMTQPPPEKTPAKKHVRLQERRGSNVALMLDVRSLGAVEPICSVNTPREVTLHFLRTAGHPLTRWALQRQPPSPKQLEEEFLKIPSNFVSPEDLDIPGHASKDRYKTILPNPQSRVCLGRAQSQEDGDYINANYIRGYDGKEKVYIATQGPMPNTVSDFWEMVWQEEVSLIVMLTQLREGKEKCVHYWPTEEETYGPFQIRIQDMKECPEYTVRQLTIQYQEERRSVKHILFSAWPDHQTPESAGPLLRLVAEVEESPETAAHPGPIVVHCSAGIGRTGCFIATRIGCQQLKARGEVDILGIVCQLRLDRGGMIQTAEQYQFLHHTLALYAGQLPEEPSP

Cannabinoid receptor 2 [7] = target: T5, Cannabinoid receptor 2 (Homo sapiens, UniProt P34972); assay: SAR analysis of antagonists of the Cannabinoid Receptor 2 using an Image-Based Assay - Set 2. [Related pubchem assays (depositor defined):AID1961, AID1965]; assay type: functional
Cannabinoid receptor 1 = Cannabinoid receptor 1 (Homo sapiens, UniProt P21554); assay: SAR analysis of antagonists of the Cannabinoid Receptor 1 using an Image-Based Assay. [Related pubchem assays (depositor defined):AID1961, AID1965]; assay type: functional
[8] = target: T3, G-protein coupled receptor 55; assay: SAR analysis of selective Agonists of GPR55 using an Image-Based Assay. [Related pubchem assays (depositor defined):AID1961, AID1965]; assay type: functional
Cannabinoid receptor 2 [9] = target: T5, Cannabinoid receptor 2; assay: SAR analysis of agonists of the Cannabinoid Receptor 2 using an Image-Based Assay - Set 2. [Related pubchem assays (depositor defined):AID1961, AID1965]; assay type: functional
[10] = target: Dual specificity protein phosphatase 3 (Homo sapiens, UniProt P51452); assay: SAR VHR1 Fluorescent Assay for In Vitro dose response studies Set 2. [Related pubchem assays (depositor defined):AID1654, AID1661, AID1878]; assay type: functional
[11] = target: Sphingosine 1-phosphate receptor 4 (Homo sapiens, UniProt O95977); assay: Fluorescence dose response cell-based high throughput screening assay for agonists of the Sphingosine 1-Phosphate Receptor 4 (S1P4). [Related pubchem assays: 1509 (Primary screen.), 1523 (Confirmation screen in triplicates.)]; assay type: functional
[12] = viability loss of HPDE-C7K cells – cell-based, fluorescence, HTS, primary screen (AID 431); assay type: functional; conditions: Homo sapiens
[13] = HPDE-C7 pancreatic duct cell viability loss – fluorescence, HTS (AID 430); assay type: functional, cell-based; conditions: Homo sapiens
[14] = target: Sphingosine 1-phosphate receptor 1 (Homo sapiens, UniProt P21453); assay: Fluorescence-based counterscreen assay for S1P4 agonists: Cell-based dose response high throughput screening assay to identify agonists of the Sphingosine 1-Phosphate Receptor 1 (S1P1). [Related pubchem assays (depositor defined):AID1509, AID1523, AID1801, AID463107, AID463118, AID463119, AID463122, AID463123, AID463129, AID463225, AID504400, AID504460]; assay type: functional
[15] = target: Sphingosine 1-phosphate receptor 2 (Homo sapiens, UniProt O95136); assay: Dose Response Cell Based Assay for Agonists of the S1P2 Receptor. [Related pubchem assays: 729, 736, 843 ]; assay type: functional
[16] = target: T6, Short transient receptor potential channel 4 (Mus musculus, UniProt Q9QUQ5); assay: calcium entry via TRPC4 opening agents – cell-based, HEK293 TRPC4/mu-opioid, Fluo-4 calcium, dose response (AID 434937); assay type: functional
T6 sequence (Q9QUQ5 whole entry): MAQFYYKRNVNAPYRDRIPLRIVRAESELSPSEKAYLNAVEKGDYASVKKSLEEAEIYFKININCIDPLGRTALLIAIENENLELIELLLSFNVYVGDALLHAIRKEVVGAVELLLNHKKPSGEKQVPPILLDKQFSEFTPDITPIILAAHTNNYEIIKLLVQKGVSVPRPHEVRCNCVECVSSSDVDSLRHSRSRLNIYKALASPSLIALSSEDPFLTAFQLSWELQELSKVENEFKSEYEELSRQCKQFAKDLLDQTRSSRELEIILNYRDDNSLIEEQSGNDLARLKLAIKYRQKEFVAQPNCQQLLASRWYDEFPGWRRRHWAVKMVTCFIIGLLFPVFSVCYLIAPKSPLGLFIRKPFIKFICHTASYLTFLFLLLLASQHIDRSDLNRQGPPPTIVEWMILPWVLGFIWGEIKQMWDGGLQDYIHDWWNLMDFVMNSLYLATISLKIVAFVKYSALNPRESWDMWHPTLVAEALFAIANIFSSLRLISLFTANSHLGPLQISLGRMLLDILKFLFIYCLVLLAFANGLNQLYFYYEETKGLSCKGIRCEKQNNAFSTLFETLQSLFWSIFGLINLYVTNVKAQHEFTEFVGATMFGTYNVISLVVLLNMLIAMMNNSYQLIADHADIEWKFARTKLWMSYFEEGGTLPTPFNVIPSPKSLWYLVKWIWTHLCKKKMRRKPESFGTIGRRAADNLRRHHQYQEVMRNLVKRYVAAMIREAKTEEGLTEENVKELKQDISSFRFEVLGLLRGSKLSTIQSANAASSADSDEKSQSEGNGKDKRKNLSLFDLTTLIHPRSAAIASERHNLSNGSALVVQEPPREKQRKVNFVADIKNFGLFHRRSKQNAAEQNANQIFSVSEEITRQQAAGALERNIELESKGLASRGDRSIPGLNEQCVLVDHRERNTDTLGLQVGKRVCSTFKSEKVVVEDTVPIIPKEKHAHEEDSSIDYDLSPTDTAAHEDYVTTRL

[17] = target: T7, Kappa-type opioid receptor (Homo sapiens, UniProt P41145); assay: SAR analysis of small molecule agonists of the kappa opioid receptor via a luminescent beta-arrestin assay - Set 3. [Related pubchem assays (depositor defined):AID1777, AID1785, AID1786, AID1966, AID2133, AID2136, AID2284, AID2500]; assay type: functional
Mu-type opioid receptor = Mu-type opioid receptor (Homo sapiens, UniProt P35372); assay: SAR Analysis of Agonists of the MOR Receptor using an Image-Based Assay - Set 3. [Related pubchem assays (depositor defined):AID1777, AID1785, AID1786, AID1966, AID2133, AID2136, AID2284, AID2285, AID2352]; assay type: functional
[18] = target: T7, Kappa-type opioid receptor; assay: kappa opioid receptor activation by imaging – image-based, set 3, SAR follow-up (AID 488833); assay type: functional
[19] = target: Delta-type opioid receptor (Homo sapiens, UniProt P41143); assay: SAR Analysis of Agonists of the DOR Receptor using an Image-Based Assay - Set 3. [Related pubchem assays (depositor defined):AID1777, AID1786]; assay type: functional
Delta-type opioid receptor, sequence (P41143 whole entry): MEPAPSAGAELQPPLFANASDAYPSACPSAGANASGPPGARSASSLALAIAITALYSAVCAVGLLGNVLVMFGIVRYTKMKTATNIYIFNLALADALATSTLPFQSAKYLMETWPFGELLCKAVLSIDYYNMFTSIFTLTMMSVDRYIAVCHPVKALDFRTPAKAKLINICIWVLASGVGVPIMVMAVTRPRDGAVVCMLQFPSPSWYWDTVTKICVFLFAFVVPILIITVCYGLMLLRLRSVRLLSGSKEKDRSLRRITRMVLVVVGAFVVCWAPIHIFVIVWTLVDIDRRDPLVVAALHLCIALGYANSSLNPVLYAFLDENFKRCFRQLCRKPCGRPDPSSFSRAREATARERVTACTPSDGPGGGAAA

T5 sequence (P34972 whole entry): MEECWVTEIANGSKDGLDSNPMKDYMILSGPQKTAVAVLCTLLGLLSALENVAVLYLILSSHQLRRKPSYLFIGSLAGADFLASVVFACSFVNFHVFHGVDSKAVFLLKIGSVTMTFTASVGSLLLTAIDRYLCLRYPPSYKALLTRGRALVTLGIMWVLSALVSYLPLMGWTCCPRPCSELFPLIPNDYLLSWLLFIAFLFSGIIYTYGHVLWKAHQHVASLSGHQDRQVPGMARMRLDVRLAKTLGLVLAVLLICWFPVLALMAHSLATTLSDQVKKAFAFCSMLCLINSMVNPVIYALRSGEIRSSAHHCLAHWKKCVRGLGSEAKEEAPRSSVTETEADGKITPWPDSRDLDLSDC
T7 sequence (P41145 whole entry): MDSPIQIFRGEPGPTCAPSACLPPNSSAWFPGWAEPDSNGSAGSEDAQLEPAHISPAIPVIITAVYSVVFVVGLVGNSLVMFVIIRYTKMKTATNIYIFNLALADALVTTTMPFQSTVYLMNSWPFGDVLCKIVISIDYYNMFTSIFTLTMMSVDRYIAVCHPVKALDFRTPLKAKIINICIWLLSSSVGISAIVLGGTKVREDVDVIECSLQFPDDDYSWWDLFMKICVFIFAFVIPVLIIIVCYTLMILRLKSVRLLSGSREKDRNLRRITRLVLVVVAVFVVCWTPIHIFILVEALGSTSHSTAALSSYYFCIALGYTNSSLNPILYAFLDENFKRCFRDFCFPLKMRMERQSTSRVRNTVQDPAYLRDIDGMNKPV
T3 sequence (Q9Y2T6 whole entry): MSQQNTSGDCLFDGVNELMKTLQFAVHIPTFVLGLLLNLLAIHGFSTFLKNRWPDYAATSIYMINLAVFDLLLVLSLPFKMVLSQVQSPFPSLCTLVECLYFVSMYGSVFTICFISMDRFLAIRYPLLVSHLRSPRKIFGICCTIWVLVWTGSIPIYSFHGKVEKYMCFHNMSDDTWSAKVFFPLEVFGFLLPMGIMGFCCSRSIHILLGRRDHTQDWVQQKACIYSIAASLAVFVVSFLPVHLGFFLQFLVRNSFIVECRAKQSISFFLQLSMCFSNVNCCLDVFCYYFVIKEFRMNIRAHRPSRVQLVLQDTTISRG
Lysine-specific demethylase 4A, sequence (O75164 whole entry): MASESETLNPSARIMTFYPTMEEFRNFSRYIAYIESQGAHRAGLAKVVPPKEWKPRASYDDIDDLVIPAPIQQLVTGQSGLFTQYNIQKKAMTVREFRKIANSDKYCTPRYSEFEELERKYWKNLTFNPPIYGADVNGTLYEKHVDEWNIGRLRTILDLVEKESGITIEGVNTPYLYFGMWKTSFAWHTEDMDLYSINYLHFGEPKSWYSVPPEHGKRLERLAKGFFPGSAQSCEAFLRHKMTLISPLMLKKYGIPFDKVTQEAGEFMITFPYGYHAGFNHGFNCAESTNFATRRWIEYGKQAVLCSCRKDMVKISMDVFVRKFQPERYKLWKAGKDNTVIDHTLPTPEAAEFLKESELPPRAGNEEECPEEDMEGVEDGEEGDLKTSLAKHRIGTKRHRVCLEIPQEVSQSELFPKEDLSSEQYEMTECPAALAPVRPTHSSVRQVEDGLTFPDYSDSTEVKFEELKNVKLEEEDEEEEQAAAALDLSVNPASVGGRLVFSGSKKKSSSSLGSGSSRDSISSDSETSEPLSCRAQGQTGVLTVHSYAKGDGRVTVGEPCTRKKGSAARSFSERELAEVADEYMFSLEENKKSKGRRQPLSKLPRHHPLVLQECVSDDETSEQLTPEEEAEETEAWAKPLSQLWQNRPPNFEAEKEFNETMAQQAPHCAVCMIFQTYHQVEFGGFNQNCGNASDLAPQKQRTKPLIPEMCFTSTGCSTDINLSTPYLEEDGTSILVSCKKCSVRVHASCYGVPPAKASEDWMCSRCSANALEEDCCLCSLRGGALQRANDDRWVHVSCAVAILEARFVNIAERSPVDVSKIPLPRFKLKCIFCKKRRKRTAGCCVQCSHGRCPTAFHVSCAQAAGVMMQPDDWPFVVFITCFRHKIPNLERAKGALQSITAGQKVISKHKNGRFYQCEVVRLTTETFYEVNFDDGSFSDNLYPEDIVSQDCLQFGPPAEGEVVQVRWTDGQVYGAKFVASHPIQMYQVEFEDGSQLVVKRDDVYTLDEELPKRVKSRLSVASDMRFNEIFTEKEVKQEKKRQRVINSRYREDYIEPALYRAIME
Sphingosine 1-phosphate receptor 4, sequence (O95977 whole entry): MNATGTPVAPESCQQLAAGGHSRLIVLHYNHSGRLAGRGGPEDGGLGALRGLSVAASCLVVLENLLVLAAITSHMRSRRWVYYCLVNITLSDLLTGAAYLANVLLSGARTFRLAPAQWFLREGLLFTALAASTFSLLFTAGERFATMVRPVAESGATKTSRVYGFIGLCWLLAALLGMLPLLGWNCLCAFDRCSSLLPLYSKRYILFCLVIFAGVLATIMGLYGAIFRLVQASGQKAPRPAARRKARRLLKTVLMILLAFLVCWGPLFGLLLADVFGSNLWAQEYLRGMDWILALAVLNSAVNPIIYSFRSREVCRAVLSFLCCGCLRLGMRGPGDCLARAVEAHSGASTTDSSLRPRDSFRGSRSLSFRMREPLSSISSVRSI
Sphingosine 1-phosphate receptor 2, sequence (O95136 whole entry): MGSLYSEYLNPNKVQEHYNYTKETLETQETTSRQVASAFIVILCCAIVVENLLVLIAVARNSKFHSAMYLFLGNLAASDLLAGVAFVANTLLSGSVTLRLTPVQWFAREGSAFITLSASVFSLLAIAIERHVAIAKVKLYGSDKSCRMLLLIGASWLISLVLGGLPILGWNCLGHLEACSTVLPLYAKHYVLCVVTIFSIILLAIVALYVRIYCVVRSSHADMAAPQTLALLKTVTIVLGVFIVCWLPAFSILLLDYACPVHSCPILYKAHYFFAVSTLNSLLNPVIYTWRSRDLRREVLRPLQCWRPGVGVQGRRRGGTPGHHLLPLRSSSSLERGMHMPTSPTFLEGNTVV
Cannabinoid receptor 1, sequence (P21554 whole entry): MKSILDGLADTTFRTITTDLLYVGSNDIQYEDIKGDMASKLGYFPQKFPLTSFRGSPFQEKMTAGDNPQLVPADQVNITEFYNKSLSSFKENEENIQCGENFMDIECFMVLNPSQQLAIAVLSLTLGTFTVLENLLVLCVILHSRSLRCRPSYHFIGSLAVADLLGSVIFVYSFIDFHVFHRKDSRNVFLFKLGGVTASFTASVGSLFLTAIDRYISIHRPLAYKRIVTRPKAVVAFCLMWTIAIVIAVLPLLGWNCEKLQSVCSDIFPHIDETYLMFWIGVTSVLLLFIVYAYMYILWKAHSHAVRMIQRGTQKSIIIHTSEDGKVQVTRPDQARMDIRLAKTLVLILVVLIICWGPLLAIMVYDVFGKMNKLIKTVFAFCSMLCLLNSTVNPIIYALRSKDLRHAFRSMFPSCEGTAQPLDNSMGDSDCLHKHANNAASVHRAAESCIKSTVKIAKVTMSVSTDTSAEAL
Sphingosine 1-phosphate receptor 1, sequence (P21453 whole entry): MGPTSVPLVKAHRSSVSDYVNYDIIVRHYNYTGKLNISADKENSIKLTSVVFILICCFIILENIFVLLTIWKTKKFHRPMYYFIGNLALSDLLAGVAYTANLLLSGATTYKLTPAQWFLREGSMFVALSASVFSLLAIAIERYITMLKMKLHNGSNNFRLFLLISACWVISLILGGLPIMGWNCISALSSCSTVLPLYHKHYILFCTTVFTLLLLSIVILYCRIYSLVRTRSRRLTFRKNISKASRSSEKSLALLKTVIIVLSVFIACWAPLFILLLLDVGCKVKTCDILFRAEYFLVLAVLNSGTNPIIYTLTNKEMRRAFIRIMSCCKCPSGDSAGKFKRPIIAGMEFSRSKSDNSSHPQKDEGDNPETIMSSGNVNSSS
Intestinal-type alkaline phosphatase (Homo sapiens, UniProt P09923), sequence (P09923 whole entry): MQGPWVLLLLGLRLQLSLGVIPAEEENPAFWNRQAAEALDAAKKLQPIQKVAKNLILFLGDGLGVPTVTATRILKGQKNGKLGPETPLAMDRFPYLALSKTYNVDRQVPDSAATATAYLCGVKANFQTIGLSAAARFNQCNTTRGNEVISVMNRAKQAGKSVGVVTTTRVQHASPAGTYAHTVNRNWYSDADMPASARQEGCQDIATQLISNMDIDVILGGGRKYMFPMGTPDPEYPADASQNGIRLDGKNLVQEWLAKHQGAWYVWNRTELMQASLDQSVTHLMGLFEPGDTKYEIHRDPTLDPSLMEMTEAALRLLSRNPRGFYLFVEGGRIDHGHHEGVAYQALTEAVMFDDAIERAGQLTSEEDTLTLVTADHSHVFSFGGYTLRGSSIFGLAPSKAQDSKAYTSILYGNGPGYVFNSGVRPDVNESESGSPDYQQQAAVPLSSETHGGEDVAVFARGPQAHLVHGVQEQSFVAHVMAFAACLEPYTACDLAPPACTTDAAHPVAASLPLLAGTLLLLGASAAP
Dual specificity protein phosphatase 3, sequence (P51452 whole entry): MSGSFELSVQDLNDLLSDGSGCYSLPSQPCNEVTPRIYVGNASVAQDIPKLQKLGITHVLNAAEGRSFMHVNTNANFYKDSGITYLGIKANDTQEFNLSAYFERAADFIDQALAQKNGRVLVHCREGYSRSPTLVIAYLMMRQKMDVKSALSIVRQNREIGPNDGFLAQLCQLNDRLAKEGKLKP

CCC(C(=O)NCCCc1ccccc1)c1ccccc1 (configuration not stated)
AC50 [1]: 3.73 µM (active)

NS(=O)(=O)c1ccc(N/N=C2\C(=O)Nn3c2nc2c(c3=O)CCCC2)cc1
IC50 (Hexokinase HKDC1): 13.2 µM (active)
IC50 [2]: 21.2 µM (active)
IC50 [3]: 23.6 µM (active)
IC50 [4]: 9.28 µM (active)

C=CCN(CC=C)S(=O)(=O)c1ccc(NC(=S)NC(=O)c2ccc(-c3ccccc3)cc2)cc1
EC50 [5]: < 500 nM (active)
IC50 [6]: > 100 µM (inactive)
IC50 (Cannabinoid receptor 2 [7]): > 32 µM (inactive)
IC50 (Cannabinoid receptor 1): > 32 µM (inactive)
EC50 [8]: 200 nM (active)
EC50 (Cannabinoid receptor 2 [9]): > 32 µM (inactive)
IC50 [10]: > 100 µM (inactive)

Clc1ccc2nc(N3CCNCC3)nc(-c3ccccc3)c2c1
EC50 [11]: > 49.8 µM (not active)
EC50 [12]: 4.64 µM (active)
EC50 [13]: 8.03 µM (active)
EC50 [14]: > 49.8 µM (inactive)
EC50 [15]: 1.34 µM (active)
EC50 [16]: 5.96 µM (active)

N#Cc1ccc(CSc2nnc(-c3ccccn3)n2Cc2cccs2)cc1
EC50 [17]: 4.64 µM (active)
EC50 (Mu-type opioid receptor): > 32 µM (inactive)
EC50 [18]: 3.52 µM (active)
EC50 [19]: > 64 µM (inactive)
